From patent US20260085069A1, “PRODRUGS” (Cambridge Enterprise Limited, priority 2022, published 2026)
In brackets after ≈: the same amount, converted by molar mass.

Tests used:
[1] = Stability in aqueous media (FaSSIF, SGF, PBS); type: physicochemical; settings: for FaSSIF (pH 6.5) % remaining 1 h / FaSSIF (pH 6.5) % remaining 6 h / FaSSIF (pH 6.5) % remaining 24 h: FaSSIF pH 6.5, 37° C.; for PBS (pH 7.4) % remaining 1 h / PBS (pH 7.4) % remaining 6 h / PBS (pH 7.4) % remaining 24 h: PBS pH 7.4, 37° C.; for SGF (pH 1.2) % remaining 1 h / SGF (pH 1.2) % remaining 6 h / SGF (pH 1.2) % remaining 24 h: SGF pH 1.2, 37° C.
Protocol: 10 μL of a 10 mM stock solution of the Examples were dissolved in 490 μL DMSO to afford […] working solution SGF (pH 1.2):
Dissolve 0.04 g NaCl and 0.064 g pepsin in 0.14 mL HCl and add sufficient water to 20 mL volume. The pH of the test solution was 1.20±0.05.
0.056% (w/v) lecithin, 0.161% (w/v) sodium taurocholate, 0.39% (w/v) monobasic potassium phosphate, 0.77% (w/v) potassium chloride, deionized H2O. The pH of the test solution was 6.5±0.05.
30 mL of 10×PBS (pH7.4) was added into a 50 mL flask and diluted with water. The solution was mixed well and adjusted to pH 7.4 with 1 N HCl.
2 μL of the 200 μL working solution of the Examples was added into 96-deep-well plates for TO, T60, T120, T360 and T1440 timepoints. Duplicates were prepared.
Stability studies were commenced by the addition of 198 μL of the required media (e.g. Simulated Gastric Fluid pH 1.2 [SGF], Simulated Fasted State Intestinal Fluid pH 6.5 [FaSSIF]) and Phosphate Buffered Saline pH 7.4 [PBS]) to each well except TO. The samples were incubated at 37° C. at 600 rpm for the appointed time. The samples at the corresponding timepoint were removed and immediately mixed with 400 μL of cold acetonitrile containing 200 ng/mL tolbutamide and labetalol (internal standard). The samples were centrifuged at 4000 rpm at 4° C. for 20 minutes. 60 μL of the supernatant was removed and mixed with 180 μL purified water and thoroughly mixed and analysed by LCMS (Shimadzu LC 30-AD, ACQUITY UPLC BEH Phenyl 1.7 um 2.1*50 mm Part No. 186002884, with mobile phase A: 0.1% formic acid in water, mobile phase B: 0.1% formic acid in acetonitrile). Formation of parent was also monitored as a metabolite.
Samples were analysed by Mass Spectrometry QTRAP 6500+.

[2] = type: in vitro ADME; settings: rat plasma, 37° C.
Protocol: 5 μL of a 10 mM stock solution of the Examples were dissolved in 495 μL DMSO to afford 500 μL working solution Assay procedure:
98 μL plasma was added to each well of a 96-well reaction plate, using one plate per timepoint (Blank, TO, T10, T30, T60, and T120). 2 μL of working solution was added to each well of the reaction plates except Blank. Each plate was incubated at 37° C. for the indicated timepoint (0, 10, 30, 60, 120 minutes). At the end of incubation, 400 μL of stop solution (200 ng/mL tolbutamide and 200 ng/mL labetalol in 0.1% FA in ACN) was added to precipitate protein. The plates were then sealed and shaken for 20 minutes before centrifugation at 4000 rpm for 20 minutes. […] Formation of parent was also monitored as a metabolite.

[3] = Solubility in simulated fluids (kinetic solubility, 24 hours); type: physicochemical; settings: thermodynamic from solid, 24 hour timepoint, room temperature
Protocol: A known quantity of the Examples and control compounds were weighed into a suitable vessel (whatman miniuniprep vials) and a known volume of the required media was added (e.g. Simulated Gastric Fluid pH 1.2 [SGF], Simulated Fasted State Intestinal Fluid pH 6.5 [FaSSIF] or Phosphate Buffered Saline pH 7.4 [PBS]). The samples were subjected to vortex mixing for 2 minutes followed by agitation on a shaker for 24 hours at room temperature at 800 rpm.

[4] = simulated gastric fluid, SGF (pH 1.2)

SMILES | FaSSIF (pH 6.5) % remaining 1 h [1] [%] | FaSSIF (pH 6.5) % remaining 6 h [1] [%] | FaSSIF (pH 6.5) % remaining 24 h [1] [%] | PBS (pH 7.4) % remaining 1 h [1] [%] | PBS (pH 7.4) % remaining 6 h [1] [%] | PBS (pH 7.4) % remaining 24 h [1] [%] | SGF (pH 1.2) % remaining 1 h [1] [%] | SGF (pH 1.2) % remaining 6 h [1] [%] | SGF (pH 1.2) % remaining 24 h [1] [%] | % Example remaining 0 min [2] [%] | Example concentration (nM) 0 min [2] [nM] | % Example remaining 10 min [2] [%] | Example concentration (nM) 10 min [2] [nM] | solubility kinetic at 24 h [3, 4] [µg/mL] | solubility kinetic at 24 h ([3]; FaSSIF (pH 6.5)) [µg/mL]
CC(C)OC(=O)c1ccc2c(c1)nc(OCCOCCCCNCc1cc(F)c(OC(F)(F)F)c(F)c1)c1ccncc12 [Example 2, isopropyl 5-(2-(4-((3,5-difluoro-4-(trifluoromethoxy)benzyl)amino)butoxy)ethoxy)benzo[c][2,6]naphthyridine-8-carboxylate] | 95.4 | 80.5 | 87.2 | 74.5 | 31.0 | 11.5 | 97.1 | 57.9 | 19.6 | – | – | – | – | – | –
CC(C)C(=O)OCOC(=O)c1ccc2c(c1)nc(OCCOCCCCNCc1cc(F)c(OC(F)(F)F)c(F)c1)c1ccncc12 [Example 5, (isobutyryloxy)methyl 5-(2-(4-((3,5-difluoro-4-(trifluoromethoxy)benzyl)amino)butoxy)ethoxy)benzo[c][2,6]naphthyridine-8-carboxylate] | 100.2 | 97.5 | 98.8 | 76.2 | 7.9 | 2.4 | 87.0 | 55.5 | 13.0 | – | – | – | – | – | –
CC(C)(C)C(=O)OCOC(=O)c1ccc2c(c1)nc(OCCOCCCCNCc1cc(F)c(OC(F)(F)F)c(F)c1)c1ccncc12 [Example 6, (pivaloyloxy)methyl 5-(2-(4-((3,5-difluoro-4-(trifluoromethoxy)benzyl)amino)butoxy)ethoxy)benzo[c][2,6]naphthyridine-8-carboxylate] | 112.8 | 97.0 | 109.4 | 85.2 | 27.7 | 5.1 | 88.8 | 59.8 | 20.0 | 100.0 | 1779.1 | 0.3 | 5.0 | – | –
COC(=O)c1ccc2c(c1)nc(OCCOCCCCNCc1cc(F)c(OC(F)(F)F)c(F)c1)c1ccncc12 [Example 4, methyl 5-(2-(4-((3,5-difluoro-4-(trifluoromethoxy)benzyl)amino)butoxy)ethoxy)benzo[c][2,6]naphthyridine-8-carboxylate] | 90.0 | 86.6 | 93.3 | 70.3 | 22.4 | 7.9 | 93.7 | 63.7 | 16.5 | – | – | – | – | – | –
O=C(OCOC(=O)c1ccc2c(c1)nc(OCCOCCCCNCc1cc(F)c(OC(F)(F)F)c(F)c1)c1ccncc12)OC1CCOCC1 [Example 16, ((((tetrahydro-2H-pyran-4-yl)oxy)carbonyl)oxy)methyl 5-(2-(4-((3,5-difluoro-4-(trifluoromethoxy)benzyl)amino)butoxy)ethoxy)benzo[c][2,6]naphthyridine-8-carboxylate] | 95.5 | 104.4 | 95.7 | 93.8 | 37.9 | 7.1 | 95.4 | 63.0 | 19.4 | 100.0 | 1845.9 | 0.1 | 2.7 | 39.4 (≈ 54.4 µM) | 99.4 (≈ 137 µM)
COC(=O)OCOC(=O)c1ccc2c(c1)nc(OCCOCCCCNCc1cc(F)c(OC(F)(F)F)c(F)c1)c1ccncc12 [Example 11, ((methoxycarbonyl)oxy)methyl 5-(2-(4-((3,5-difluoro-4-(trifluoromethoxy)benzyl)amino)butoxy)ethoxy)benzo[c][2,6]naphthyridine-8-carboxylate] | 96.4 | 97.5 | 105.9 | 81.2 | 29.3 | 19.0 | 100.2 | 66.3 | 21.5 | – | – | – | – | – | –
CC(C)(C)OC(=O)OCOC(=O)c1ccc2c(c1)nc(OCCOCCCCNCc1cc(F)c(OC(F)(F)F)c(F)c1)c1ccncc12 [Example 15, ((tert-butoxycarbonyl)oxy)methyl 5-(2-(4-((3,5-difluoro-4-(trifluoromethoxy)benzyl)amino)butoxy)ethoxy)benzo[c][2,6]naphthyridine-8-carboxylate] | 99.0 | 97.9 | 98.6 | 100.3 | 49.7 | 7.9 | 47.5 | 3.8 | 1.8 | – | – | – | – | – | –
Cc1oc(=O)oc1COC(=O)c1ccc2c(c1)nc(OCCOCCCCNCc1cc(F)c(OC(F)(F)F)c(F)c1)c1ccncc12 [Example 7, (5-methyl-2-oxo-1,3-dioxol-4-yl)methyl 5-(2-(4-((3,5-difluoro-4-(trifluoromethoxy)benzyl)amino)butoxy)ethoxy)benzo[c][2,6]naphthyridine-8-carboxylate] | 101.0 | 93.5 | 89.1 | 78.9 | 16.7 | 0.7 | 98.9 | 67.2 | 26.9 | 100.0 | 1887.9 | 0.1 | 1.2 | 18.5 (≈ 27.3 µM) | 76.1 (≈ 112 µM)
CN(C)CCOC(=O)c1ccc2c(c1)nc(OCCOCCCCNCc1cc(F)c(OC(F)(F)F)c(F)c1)c1ccncc12 [Example 3, 2-(dimethylamino)ethyl 5-(2-(4-((3,5-difluoro-4-(trifluoromethoxy)benzyl)amino)butoxy)ethoxy)benzo[c][2,6]naphthyridine-8-carboxylate] | 102.2 | 101.8 | 98.6 | 71.8 | 17.8 | 1.3 | 90.6 | 76.1 | 33.5 | 100.0 | 1830.9 | 0.1 | 2.7 | – | –
